Laboratory results from patent US20190021380A1 (priority 2014, published 2019).

Experiments:
[1] = molecular target: T1, T1R1/T1R3 receptor (Felis catus, UniProt E3UMS2); assay type: cell-based; conditions: for Thres +IMP (0.2 mM): threshold in the presence of 0.2 mM IMP; for EC50 +buffer (alone): compound alone in buffer
From the text: HEK293 cells that stably express T1R3 and inducibly express T1R1 were exposed to transmembrane compounds alone or in combination with one or more amino acids and/or one or more nucleotides to activate the umami receptor. Activation of the T1R1/T1R3 receptor was detected by a change in intracellular calcium levels using a calcium sensitive fluorescent dye. Cells that express T1R3 but not T1R1 were used as a control. A FLIPR® Tetra or a FlexStation® 3 was used for data capture.
In each experiment, serial dilutions of up to 10 mM of the transmembrane compound were added to the T1R1/T1R3-expressing cells.

[2] = molecular target: T1, T1R1/T1R3 receptor; assay: Example 8: agonist screening of transmembrane compounds on T1R1/T1R3 in HEK293 cells; assay type: cell-based, cat; conditions: for agonist profile assessment: transmembrane compound alone, in words; for T1R1/T1R3 agonist: transmembrane compound tested at 0.01, 0.1 and 1 mM, HEK293 cells expressing T1R1/T1R3, calcium dye and/or luminescent reporter
Method: (§1) HEK293 cells that stably express T1R3 and inducibly express T1R1 were exposed to a transmembrane compound. Activation of the T1R1/T1R3 receptor was detected by a change in intracellular calcium levels using a calcium sensitive fluorescent dye and/or a luminescent reporter system. […] A FLIPR® Tetra or a FlexStation® 3 was used for data capture.
Each transmembrane compound was tested at concentrations of 0.01 mM, 0.1 mM, and 1 mM. […] To generate the dose response curves, the transmembrane compound was tested at concentrations of between 0.0001 mM and 1.0 mM in the presence of GMP and Ala.

[3] = molecular target: T1, T1R1/T1R3 receptor; assay: Example 8: PAM screening of transmembrane compounds with GMP and Ala on T1R1/T1R3 in HEK293 cells; assay type: cell-based, cat; conditions: for PAM profile assessment: in the presence of GMP and Alanine, in words; for T1R1/T1R3 PAM: compound at 0.01, 0.1, 1 mM in combination with GMP+Ala mixtures (T1-T4), PAM if response to the combination is greater than the sum of the responses to compound alone and to GMP+Ala alone
From the text: as §1, with “to” for “to a”, “compound alone or in combination with Ala and GMP to activate the umami receptor.” for “compound.”
Dose response curves were generated for each transmembrane compound at concentrations of 0 (buffer only), 0.01, 0.1 and 1 mM, wherein each of the three concentrations of transmembrane compound was tested in combination with 0.03 mM GMP+100 mM Ala (T1); 0.6 mM GMP+10 mM Ala (T2); 0.1 mM GMP+60 mM Ala (T3) and 0.3 mM GMP+60 mM Ala (T4). The T4 mixture was also tested in a 2-fold dilution series (the T4(X) Concentration). In these experiments, the first test concentration was 2× (2 times) the T4 concentration. The subsequent test concentrations were 2-fold dilutions from that (1×, 0.5× etc.). This dilution series was tested with or without the addition of the test compound at a constant 0.3 mM concentration.
Activation of the umami receptor was also determined in the presence of 1 mM GMP+100 mM Ala to generate a “maximum” umami receptor activation level.

[4] = in the presence of 0.2 mM IMP, CNBD = Could not be determined

| SMILES | Thres +IMP (0.2 mM) ([1]; CNBD = Could not be determined) | T1R1/T1R3 agonist [2] | T1R1/T1R3 PAM [3] | further results |
| --- | --- | --- | --- | --- |
| O=C1CC(=O)N(Cc2ccccc2)C(=O)N1Cc1ccccc1 [1,3-dibenzylpyrimidine-2,4,6(1H,3H,5H)-trione] | 0.1 mM | – | – | agonist profile assessment [2]: agonist activity |
| O=C(CN1C(=O)C(=O)N(Cc2ccccc2)C1=O)c1ccc(Cl)s1 [1-benzyl-3-(2-(5-chlorothiophen-2-yl)-2-oxoethyl)imidazolidine-2,4,5-trione] | – | – | – | PAM profile assessment [3]: PAM activity |
| O=C(O)C1CCCCC1C(=O)Nc1cc(Cl)cc(Cl)c1 (stereo not shown) [2-((3,5-dichlorophenyl)carbamoyl)cyclohexanecarboxylic acid] | 0.03 mM | – | – | – |
| Nc1ccccc1C(=O)NCCc1ccccc1 [2-amino-N-phenethylbenzamide] | 0.01 mM | – | – | – |
| CC(=O)Nc1ccc(C(=O)Nc2cc(-c3ccccc3)nn2CCO)cc1 [4-acetamido-N-(1-(2-hydroxyethyl)-3-phenyl-1H-pyrazol-5-yl)benzamide] | CNBD | – | – | EC50 +Alanine (20 mM) [1]: CNBD; Thres +Alanine (20 mM) [1]: CNBD; EC50 +buffer (alone) ([1]; CNBD = Could not be determined): CNBD |
| CCCCc1nn(CC(=O)N2CCCC2)c(=O)n1Cc1ccccc1 [4-benzyl-3-butyl-1-(2-oxo-2-(pyrrolidin-1-yl)ethyl)-1H-1,2,4-triazol-5(4H)-one] | 0.1 mM | – | – | – |
| O=P(O)(O)OP(=O)(O)OP(=O)(O)OC[C@H]1O[C@@H](n2cnc3c(Cl)ncnc32)[C@H](O)[C@@H]1O [6-Chloropurine riboside-5′-O-triphosphate] | 0.003 mM | – | – | Thres +Alanine (20 mM) [1]: 0.01 mM; Activity ([1]; overall call for modulation of T1R1/T1R3: active or N/A (= Not active)): active |
| Nc1nc2c(ncn2[C@@H]2O[C@H](COP(=O)(O)OP(=O)(O)O)[C@@H](O)[C@H]2O)c(=S)[nH]1 [6-Thioguanosine-5′-O-diphosphate] | CNBD | – | – | EC50 +buffer (alone) ([1]; CNBD = Could not be determined): CNBD; EC50 +IMP (0.2 mM) [1, 4]: CNBD; Max resp ΔF/F +IMP (0.2 mM) [1, 4]: 0.0720 ΔF/F |
| COC(=O)[C@H](CC(C)C)NCc1ccccc1.Cl [Benzyl-L-leucine methyl ester hydrochloride] | – | – | – | agonist profile assessment [2]: agonist; PAM profile assessment [3]: PAM activity |
| O=C[C@H](O)[C@@H](O)[C@H](O)[C@H](O)CO [D-Glucose, reference compound] | – | – | – | EC50 +buffer (alone) ([1]; CNBD = Could not be determined): CNBD |
| O=C(CN1C(=O)C(=O)N(Cc2ccccc2)C1=O)c1ccccc1 [Formula 1, 1-benzyl-3-(2-oxo-2-phenylethyl)imidazolidine-2,4,5-trione] | – | No | No | – |
| O=C(CN1C(=O)C(=O)N(Cc2ccccc2)C1=O)c1ccc2c(c1)CCC2 [Formula 2, 1-benzyl-3-(2-(2,3-dihydro-1H-inden-5-yl)-2-oxoethyl)imidazolidine-2,4,5-trione] | – | No | No | – |
| O=C(CN1C(=O)C(=O)N(Cc2ccccc2)C1=O)c1ccc(Br)cc1 [Formula 3, 1-benzyl-3-(2-(4-bromophenyl)-2-oxoethyl)imidazolidine-2,4,5-trione] | – | No | No | – |
| O=C(CN1C(=O)C(=O)N(Cc2ccccc2)C1=O)c1ccc2c(c1)OCCO2 [Formula 4, 1-benzyl-3-(2-(2,3-dihydrobenzo[b][1,4]dioxin-6-yl)-2-oxoethyl)imidazolidine-2,4,5-trione] | – | No | No | – |
| COc1ccc(C(=O)CN2C(=O)C(=O)N(Cc3ccccc3)C2=O)c(OC)c1 [Formula 5, 1-benzyl-3-(2-(2,4-dimethoxyphenyl)-2-oxoethyl)imidazolidine-2,4,5-trione] | – | No | No | – |
| O=C(CN1C(=O)C(=O)N(CCc2cccs2)C1=O)c1ccccc1 [Formula 6, 1-(2-oxo-2-phenylethyl)-3-(2-(thiophen-2-yl)ethyl)imidazolidine-2,4,5-trione] | – | No | No | – |
| O=C(CN1C(=O)C(=O)N(CCc2cccs2)C1=O)c1ccc2c(c1)OCO2 [Formula 7, 1-(2-(benzo[d][1,3]dioxol-5-yl)-2-oxoethyl)-3-(2-(thiophen-2-yl)ethyl)imidazolidine-2,4,5-trione] | – | No | No | – |
| O=C(CN1C(=O)C(=O)N(Cc2ccccc2)C1=O)c1ccc2c(c1)OCCCO2 [Formula 8, 1-benzyl-3-(2-(3,4-dihydro-2H-benzo[b][1,4]dioxepin-7-yl)-2-oxoethyl)imidazolidine-2,4,5-trione] | – | No | Weak PAM | PAM profile assessment [3]: PAM activity |
